Data on 25 molecules can be found in ChEMBL document CHEMBL1129621, “Novel 5-aminoflavone derivatives as specific antitumor agents in breast cancer” (J Med Chem, 1996).

pIC50: −log10 of the molar value.

The subject of assay [1] is MCF7. Nature of the assay: cells. The class given is functional, cell-based. Conditions: Homo sapiens.
Description: Inhibition of 10e-4 uM estradiol induced estrogen receptor positive MCF-7 human breast cancer cell proliferation
The subject of assay [2] is MCF7. Nature of the assay: cells. It counts as functional, cell-based. The settings on record: Homo sapiens. The source holds these as a separate data set.
Description: Anti-proliferative activity against estrogen-responsive human breast cancer cell line MCF-7 in the presence of ER at a 10e-4 uM concentration of estradiol
The next assay concerns the target Estrogen receptor (Homo sapiens, UniProt Q92731+P03372).
Assay [3] deals with MDA-MB-453. Nature of the assay: cells. Conditions: Homo sapiens.
Description: Inhibition of estrogen receptor negative MDA-MB-453 breast cancer cell proliferation with 10e-4 M estradiol
Assay [4] relates to MCF7. Nature of the assay: Inhibition of estrogen receptor positive MCF-7 human breast cancer cell proliferation. The class given is functional, cell-based.
Assay [5] has as its system HeLa. Nature of the assay: Inhibition of […]e-2 uM estradiol induced human cancer cell HeLa S3 proliferation. It counts as functional, cell-based.
Assay [6] has as its system WiDr. Nature of the assay: Inhibition of WiDr human cancer cell proliferation. The class given is functional, cell-based.
Assay [7] has as its system HeLa. Nature of the assay: cells. Conditions: Homo sapiens.
Description: Inhibition of 10e-2 uM estradiol induced human cancer cell HeLa S3 proliferation
Assay [8] concerns WiDr. Nature of the assay: Inhibition of WiDr human cancer cell proliferation with 10e-2 uM estradiol. It counts as functional, cell-based.
In assay [9] the test system is MDA-MB-453. Nature of the assay: Inhibition of estrogen receptor negative MDA-MB-453 breast cancer cell proliferation. It counts as functional, cell-based. Conditions: Homo sapiens.

Description for Estrogen receptor: Binding affinity for estrogen receptor, by competition with [3H]estradiol

For the molecule `CN(C)c1ccc(-c2cc(=O)c3c(N)cccc3o2)cc1`, the pIC50 with MCF7 [1] is 8.30; in the assay with MCF7 [2] it was 8.40. Further, the IC50 on Estrogen receptor was > 100 µM.

For `CC(=O)Nc1ccc(-c2cc(=O)c3c(N)cccc3o2)cc1`, the pIC50 in the assay with MCF7 [1] was 4.74; with MCF7 [2], 4.89. The IC50 against Estrogen receptor was > 100 µM.

For the molecule `CC/C(=C(\c1ccccc1)c1ccc(OCCN(C)C)cc1)c1ccccc1` [TAMOXIFEN], the pIC50 with MDA-MB-453 [3] was < 5.30; in the assay on MCF7 [1], 4.72; in the assay with MCF7 [2], 6.85.

Turning to `CCCNc1ccc(-c2cc(=O)c3c(N)cccc3o2)cc1`, the pIC50 with MCF7 [1] was 8.06; with MCF7 [2] it was 8.17. Besides, the IC50 at Estrogen receptor is > 100 µM.

`CNc1ccc(-c2cc(=O)c3c(N)cccc3o2)cc1`: the pIC50 with MCF7 [1] was 8.27; in the assay with MCF7 [4], 7.12; in the assay on HeLa [5], 5.20; in the assay with WiDr [6], < 5.00; with MCF7 [2] it was 8.64. Moreover, the IC50 on Estrogen receptor is > 100 µM.

For the molecule `O=c1c(-c2ccc(O)cc2)coc2cc(O)cc(O)c12` [GENISTEIN], the pIC50 is 4.11 with MCF7 [1] and 4.96 in the assay on MCF7 [2].

In the case of `Nc1cccc2oc(-c3ccc(O)cc3)cc(=O)c12`, the pIC50 in the assay on MCF7 [1] was < 4.00; in the assay with MCF7 [2], 5.82. The IC50 against Estrogen receptor stood at 18 µM.

In the case of `Nc1cccc2oc(-c3ccc(C(=O)O)cc3)cc(=O)c12`, the pIC50 with MCF7 [1] and in the assay on MCF7 [2] was < 5.00 throughout.

For the molecule `CN(C)c1cccc(-c2cc(=O)c3cc(N)ccc3o2)c1`, the pIC50 in the assay with MCF7 [1] and with MCF7 [2] was 4.89 each time.

Take `CCCCCCNc1ccc(-c2cc(=O)c3c(N)cccc3o2)cc1`: the negative logarithm of the IC50 (pIC50) in the assay with MCF7 [1] was 6.36; in the assay on MCF7 [2] it was 7.12.

In the case of `CN(C)c1ccc(-c2cc(=O)c3cccc(N)c3o2)cc1`, the pIC50 with MCF7 [1] is 5.70; with MCF7 [2], 7.68.

For the molecule `CN(C)c1ccc(-c2cc(=O)c3cc(N)ccc3o2)cc1`, the pIC50 in the assay on MCF7 [1] is 7.46; with MCF7 [2], 7.89.

Consider `COc1ccc(-c2cc(=O)c3c(N)cccc3o2)cc1`, for which the negative-log IC50 (pIC50) in the assay with MCF7 [1] is < 4.00; in the assay on MCF7 [2], 4.92. In addition, the IC50 at Estrogen receptor is > 100 µM.

As to `COc1cccc2c1C(=O)c1c(O)c3c(c(O)c1C2=O)C[C@@](O)(C(=O)CO)C[C@@H]3O[C@H]1C[C@H](N)[C@H](O)[C@H](C)O1` [DOXORUBICIN], the pIC50 is 7.52 in the assay on HeLa [7] and 6.21 in the assay on WiDr [8].

For the molecule `Nc1cccc2oc(-c3ccccc3)cc(=O)c12`, the results for the pIC50 with MCF7 [1] and in the assay with MCF7 [2] were < 4.00 and 4.89, respectively. Also, the IC50 on Estrogen receptor was > 100 µM.

With `CCCCNc1ccc(-c2cc(=O)c3c(N)cccc3o2)cc1`, the negative logarithm of the IC50 (pIC50) in the assay on MCF7 [1] was 8.06; in the assay on MCF7 [2], 8.29. The IC50 against Estrogen receptor was > 100 µM.

For `O=c1cc(-c2ccc(O)cc2)oc2cc(O)cc(O)c12` [APIGENIN], the values for the pIC50 in the assay on MCF7 [1] and in the assay with MCF7 [2] were 4.02 and < 4.00, respectively.

For `Nc1cccc2oc(-c3ccc(NCc4ccccc4)cc3)cc(=O)c12`, the pIC50 in the assay on MCF7 [1] was 5.37; with MCF7 [2], 5.39. The IC50 at Estrogen receptor was > 100 µM.

With `CCN(CC)c1ccc(-c2cc(=O)c3c(N)cccc3o2)cc1`, the pIC50 in the assay with MCF7 [1] is 8.00; in the assay with MCF7 [2] it was 8.70.

As to `N#Cc1ccc(-c2cc(=O)c3c(N)cccc3o2)cc1`, the pIC50 with MCF7 [1] was 4.03; in the assay with MCF7 [2], < 4.00. The IC50 against Estrogen receptor is > 100 µM.

Regarding `Nc1cccc2oc(-c3ccc(Br)cc3)cc(=O)c12`, the values for the pIC50 in the assay with MCF7 [1] and with MCF7 [2] were 5.02 and 6.00, respectively. For the same molecule, the IC50 on Estrogen receptor is > 100 µM.

For the molecule `CCNc1ccc(-c2cc(=O)c3c(N)cccc3o2)cc1`, the pIC50 in the assay on MCF7 [1] is 8.77; in the assay on MCF7 [4], 7.04; in the assay on HeLa [5] it was < 5.00; in the assay with WiDr [6], < 5.00; in the assay on MCF7 [2] it was 8.89. In addition, the IC50 at Estrogen receptor is > 100 µM.

Consider `CN(C)c1ccc(-c2cc(=O)c3ccc(N)cc3o2)cc1`, for which the pIC50 was 5.16 in the assay with MCF7 [1] and 5.30 in the assay on MCF7 [2].

In the case of `Nc1ccc(-c2cc(=O)c3c(N)cccc3o2)cc1`, the pIC50 in the assay with MDA-MB-453 [9] was < 5.30; in the assay on MCF7 [1], 8.01; in the assay on MCF7 [4] it was 7.28; in the assay on HeLa [5], < 5.00; with WiDr [6] it was < 5.00; with MCF7 [2], 8.14. Also, the half-inhibitory concentration (IC50) on Estrogen receptor was > 100 µM.

`Nc1cccc(-c2cc(=O)c3c(N)cccc3o2)c1`: the pIC50 with MCF7 [1] is < 4.00; in the assay on MCF7 [2], 4.57.
